# US5684026A, “Aminocyclopentane derivative” (priority 1994, dated 1997)
# Test system: B16 melanoma cells
# Assay: Cytotoxicity, survival ratio by Trypan blue staining
# Type: cell-based
# Conditions: 5-100 μM, 24 hours
# Experimental: After 24 hours, the medium was replaced with Dulbecco-modified Eagle medium containing each sample. The incubation was continued under the same conditions for additional 24 hours. Then the cells were harvested by adding EDTA, washed with PBS and stained with 0.3% Trypan blue solution to thereby determine the survival ratio of the cells.
smiles,measurement,value
"OC[C@@]12OC(Nc3ccccc3)=N[C@@H]1[C@H](O)[C@@H](O)[C@@H]2O [Compound 1-2L, (1S,5R,6S,7R,8S)-1-hydroxymethyl-3-phenylamino-2-oxa-4-azabicyclo[3.3.0]oct-3-ene-6,7,8-triol]",cytotoxicity (in words),no cytotoxicity
